Measured values as given in ChEMBL document CHEMBL1201862, “PubChem BioAssay data set” (2004).
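Five compound concentrations were applied to cells in 96-well plates for 48 hours; endpoints were derived by simple linear interpolation of the resulting dose-response curve. The concentration for 50% growth inhibition is given as GI50.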 The source made the active and inactive calls. Rule as the data show it: active = GI50 up to about 1.1 µM and inactive = higher.

What was measured:
Test in all cases: NCI anticancer screen, dose series, 48 h
U-251 = tested on: U-251
CAKI-1 = tested on: CAKI-1
LOX IMVI = tested on: LOX IMVI
MDA-MB-231 = tested on: MDA-MB-231
SNB-19 = tested on: SNB-19
HT-29 = tested on: HT-29
ACHN = tested on: ACHN
UO-31 = tested on: UO-31
MCF7 = tested on: MCF7
IGROV-1 = tested on: IGROV-1
NCI-H226 = tested on: NCI-H226
SN12C = tested on: SN12C
UACC-62 = tested on: UACC-62
HL-60 = tested on: HL-60
M14 = tested on: M14
COLO 205 = tested on: COLO 205
RPMI-8226 = tested on: RPMI-8226
SR = tested on: SR
RXF 393 = tested on: RXF 393
SK-MEL-2 = tested on: SK-MEL-2
TK-10 = tested on: TK-10
HCT-116 = tested on: HCT-116
HOP-92 = tested on: HOP-92
HOP-62 = tested on: HOP-62
HCC 2998 = tested on: HCC 2998
MDA-N = tested on: MDA-N
NCI/ADR-RES = tested on: NCI/ADR-RES
EKVX = tested on: EKVX
HCT-15 = tested on: HCT-15
OVCAR-8 = tested on: OVCAR-8
SNB-75 = tested on: SNB-75
NCI-H460 = tested on: NCI-H460
BT-549 = tested on: BT-549
SF-268 = tested on: SF-268
K562 = tested on: K562
MDA-MB-435 = tested on: MDA-MB-435
CCRF-CEM = tested on: CCRF-CEM
SW-620 = tested on: SW-620
KM12 = tested on: KM12
T47D = tested on: T47D
SK-OV-3 = tested on: SK-OV-3
Hs-578T = tested on: Hs-578T
SK-MEL-5 = tested on: SK-MEL-5
PC-3 = tested on: PC-3
OVCAR-4 = tested on: OVCAR-4
OVCAR-5 = tested on: OVCAR-5
A498 = tested on: A498
A549 = tested on: A549
SF-295 = tested on: SF-295
NCI-H23 = tested on: NCI-H23
SK-MEL-28 = tested on: SK-MEL-28
MOLT-4 = tested on: MOLT-4
786-0 = tested on: 786-0
OVCAR-3 = tested on: OVCAR-3
NCI-H522 = tested on: NCI-H522
UACC-257 = tested on: UACC-257
DU-145 = tested on: DU-145
SF-539 = tested on: SF-539
Malme-3M = tested on: Malme-3M

With `CCN(CC)CCN1C=CC(C)C(C(=O)O)C1C(N)=O` (stereo unspecified) the GI50 (U-251) was > 100 µM (inactive), the GI50 (CAKI-1) was > 100 µM (inactive) and the GI50 (LOX IMVI) was > 100 µM (inactive). The GI50 (MDA-MB-231) was > 100 µM (inactive), the GI50 (SNB-19) was > 100 µM (inactive) and the GI50 (HT-29) was > 100 µM (inactive). For the same compound, the GI50 (ACHN) was > 100 µM (inactive), the GI50 (UO-31) was > 100 µM (inactive) and the GI50 (MCF7) was > 100 µM (inactive). The GI50 (IGROV-1) was > 100 µM (inactive), the GI50 (NCI-H226) was > 100 µM (inactive) and the GI50 (SN12C) was > 100 µM (inactive). The GI50 (UACC-62) was > 100 µM (inactive), the GI50 (HL-60) was > 100 µM (inactive) and the GI50 (M14) was > 100 µM (inactive). For the same compound, the GI50 (COLO 205) was > 100 µM (inactive), the GI50 (RPMI-8226) was > 100 µM (inactive) and the GI50 (SR) was > 100 µM (inactive). For the same compound, the GI50 (RXF 393) was > 100 µM (inactive), the GI50 (SK-MEL-2) was > 100 µM (inactive) and the GI50 (TK-10) was > 100 µM (inactive). For the same compound, the GI50 (HCT-116) was > 100 µM (inactive), the GI50 (HOP-92) was > 100 µM (inactive) and the GI50 (HOP-62) was > 100 µM (inactive). For the same compound, the GI50 (HCC 2998) was > 100 µM (inactive), the GI50 (MDA-N) was > 100 µM (inactive) and the GI50 (NCI/ADR-RES) was > 100 µM (inactive). The GI50 (EKVX) was > 100 µM (inactive), the GI50 (HCT-15) was greater than 100 µM and the GI50 (OVCAR-8) was > 100 µM (inactive). The GI50 (SNB-75) was > 100 µM (inactive), the GI50 (NCI-H460) was > 100 µM (inactive) and the GI50 (BT-549) was > 100 µM (inactive). For the same compound, the GI50 (SF-268) was > 100 µM (inactive), the GI50 (K562) was > 100 µM (inactive) and the GI50 (MDA-MB-435) was > 100 µM (inactive). For the same compound, the GI50 (CCRF-CEM) was > 100 µM (inactive), the GI50 (SW-620) was > 100 µM (inactive) and the GI50 (KM12) was > 100 µM (inactive). For the same compound, the GI50 (T47D) was > 100 µM (inactive), the GI50 (SK-OV-3) was > 100 µM (inactive) and the GI50 (Hs-578T) was > 100 µM (inactive). For the same compound, the GI50 (SK-MEL-5) was > 100 µM (inactive), the GI50 (PC-3) was > 100 µM (inactive) and the GI50 (OVCAR-4) was > 100 µM (inactive). The GI50 (OVCAR-5) was > 100 µM (inactive), the GI50 (A498) was > 100 µM (inactive) and the GI50 (A549) was > 100 µM (inactive). For the same compound, the GI50 (SF-295) was > 100 µM (inactive), the GI50 (NCI-H23) was > 100 µM (inactive) and the GI50 (SK-MEL-28) was > 100 µM (inactive). For the same compound, the GI50 (MOLT-4) was > 100 µM (inactive), the GI50 (786-0) was > 100 µM (inactive) and the GI50 (OVCAR-3) was > 100 µM (inactive). For the same compound, the GI50 (NCI-H522) was > 100 µM (inactive), the GI50 (UACC-257) was > 100 µM (inactive) and the GI50 (DU-145) was > 100 µM (inactive).
In the case of `CCOC(=O)c1ccc(Nc2nc3ccc(C(F)(F)F)cc3nc2C(=O)OCC)cc1`, the GI50 (U-251) is reported as > 100 µM (inactive), the GI50 (CAKI-1) is reported as 81.3 µM (inactive) and the GI50 (LOX IMVI) is reported as > 100 µM (inactive). For the same compound, the GI50 (MDA-MB-231) was > 100 µM (inactive), the GI50 (SNB-19) was > 100 µM (inactive) and the GI50 (HT-29) was > 100 µM (inactive). The GI50 (ACHN) was > 100 µM (inactive), the GI50 (UO-31) was > 100 µM (inactive) and the GI50 (MCF7) was > 100 µM (inactive). For the same compound, the GI50 (IGROV-1) was > 100 µM (inactive), the GI50 (NCI-H226) was > 100 µM (inactive) and the GI50 (SN12C) was > 100 µM (inactive). For the same compound, the GI50 (UACC-62) was > 100 µM (inactive), the GI50 (HL-60) was > 100 µM (inactive) and the GI50 (M14) was > 100 µM (inactive). For the same compound, the GI50 (COLO 205) was > 100 µM (inactive), the GI50 (RPMI-8226) was > 100 µM (inactive) and the GI50 (SR) was > 100 µM (inactive). The GI50 (RXF 393) was > 100 µM (inactive), the GI50 (TK-10) was > 100 µM (inactive) and the GI50 (HCT-116) was > 100 µM (inactive). The GI50 (HOP-92) was > 100 µM (inactive), the GI50 (HOP-62) was 49.2 µM (inactive) and the GI50 (HCC 2998) was > 100 µM (inactive). The GI50 (MDA-N) was > 100 µM (inactive), the GI50 (NCI/ADR-RES) was > 100 µM (inactive) and the GI50 (EKVX) was > 100 µM (inactive). For the same compound, the GI50 (HCT-15) was greater than 100 µM, the GI50 (OVCAR-8) was > 100 µM (inactive) and the GI50 (SNB-75) was 95.3 µM (inactive). The GI50 (NCI-H460) was > 100 µM (inactive), the GI50 (BT-549) was > 100 µM (inactive) and the GI50 (SF-268) was > 100 µM (inactive). The GI50 (K562) was > 100 µM (inactive), the GI50 (MDA-MB-435) was > 100 µM (inactive) and the GI50 (CCRF-CEM) was > 100 µM (inactive). The GI50 (SW-620) was > 100 µM (inactive), the GI50 (KM12) was > 100 µM (inactive) and the GI50 (T47D) was > 100 µM (inactive). The GI50 (SK-OV-3) was > 100 µM (inactive), the GI50 (Hs-578T) was 32.9 µM (inactive) and the GI50 (SK-MEL-5) was > 100 µM (inactive). For the same compound, the GI50 (PC-3) was > 100 µM (inactive), the GI50 (OVCAR-5) was > 100 µM (inactive) and the GI50 (A498) was > 100 µM (inactive). The GI50 (A549) was > 100 µM (inactive), the GI50 (SF-539) was > 100 µM (inactive) and the GI50 (SF-295) was > 100 µM (inactive). The GI50 (NCI-H23) was > 100 µM (inactive), the GI50 (SK-MEL-28) was > 100 µM (inactive) and the GI50 (MOLT-4) was > 100 µM (inactive). The GI50 (786-0) was > 100 µM (inactive), the GI50 (Malme-3M) was > 100 µM (inactive) and the GI50 (OVCAR-3) was > 100 µM (inactive). The GI50 (NCI-H522) was > 100 µM (inactive), the GI50 (UACC-257) was > 100 µM (inactive) and the GI50 (DU-145) was > 100 µM (inactive).
For `Clc1ccc(-c2nnc3sc4nc5ccccc5c-4nn23)c(Cl)c1`, the GI50 (U-251) was 36.6 µM (inactive), the GI50 (CAKI-1) was 34.7 µM (inactive) and the GI50 (LOX IMVI) was 44 µM (inactive). For the same compound, the GI50 (MDA-MB-231) was 99.3 µM (inactive), the GI50 (SNB-19) was 49.4 µM (inactive) and the GI50 (HT-29) was 55.7 µM (inactive). For the same compound, the GI50 (ACHN) was 82.8 µM (inactive), the GI50 (UO-31) was 62.4 µM (inactive) and the GI50 (MCF7) was 43.3 µM (inactive). The GI50 (NCI-H226) was 64.3 µM (inactive), the GI50 (SN12C) was 50.6 µM (inactive) and the GI50 (UACC-62) was 33.5 µM (inactive). The GI50 (HL-60) was 41.7 µM (inactive), the GI50 (M14) was 48.3 µM (inactive) and the GI50 (COLO 205) was 56.4 µM (inactive). The GI50 (SR) was 44.9 µM (inactive), the GI50 (RXF 393) was 78.9 µM (inactive) and the GI50 (SK-MEL-2) was 30.6 µM (inactive). For the same compound, the GI50 (TK-10) was 55.2 µM (inactive), the GI50 (HCT-116) was 40.7 µM (inactive) and the GI50 (HOP-92) was 19.1 µM (inactive). The GI50 (HOP-62) was 67 µM (inactive), the GI50 (HCC 2998) was 28.7 µM (inactive) and the GI50 (MDA-N) was 28.6 µM (inactive). For the same compound, the GI50 (NCI/ADR-RES) was 34.4 µM (inactive), the GI50 (EKVX) was 28.8 µM (inactive) and the GI50 (HCT-15) was 34.9 µM. For the same compound, the GI50 (OVCAR-8) was 50 µM (inactive), the GI50 (SNB-75) was 71 µM (inactive) and the GI50 (NCI-H460) was 41.8 µM (inactive). The GI50 (BT-549) was 28.9 µM (inactive), the GI50 (SF-268) was 33.7 µM (inactive) and the GI50 (K562) was 31.8 µM (inactive). For the same compound, the GI50 (MDA-MB-435) was 32.6 µM (inactive), the GI50 (CCRF-CEM) was 36.5 µM (inactive) and the GI50 (SW-620) was 46 µM (inactive). The GI50 (KM12) was 37.5 µM (inactive), the GI50 (T47D) was 59.2 µM (inactive) and the GI50 (SK-OV-3) was 95.1 µM (inactive). The GI50 (Hs-578T) was 21.7 µM (inactive), the GI50 (SK-MEL-5) was 42.8 µM (inactive) and the GI50 (PC-3) was 43.3 µM (inactive). For the same compound, the GI50 (OVCAR-4) was 42 µM (inactive), the GI50 (OVCAR-5) was 50.6 µM (inactive) and the GI50 (A498) was 36.4 µM (inactive). For the same compound, the GI50 (A549) was 41.7 µM (inactive), the GI50 (SF-539) was 50.9 µM (inactive) and the GI50 (SF-295) was 36.2 µM (inactive). For the same compound, the GI50 (NCI-H23) was 29 µM (inactive), the GI50 (SK-MEL-28) was 43.9 µM (inactive) and the GI50 (MOLT-4) was 36.8 µM (inactive). The GI50 (786-0) was 52.6 µM (inactive), the GI50 (Malme-3M) was 49.4 µM (inactive) and the GI50 (OVCAR-3) was 29 µM (inactive). For the same compound, the GI50 (NCI-H522) was 26.2 µM (inactive), the GI50 (UACC-257) was 38.5 µM (inactive) and the GI50 (DU-145) was 72.1 µM (inactive).
